Measured values as given in patent publication US8110398B2, “Stable cell lines and methods for evaluating gastrointestinal absorption of chemicals” (Absorption Systems Group, LLC, priority 2006, dated 2012).

What was measured:
P-gp = P-gp (Homo sapiens, UniProt P08183); test: Calcein-AM assay; conditions: for RFU/μg of protein: 30 minutes
Method: Calcein-AM assay. To determine activity of the P-gp protein, calcein-AM assays were conducted.
To determine the P-gp activity, cells were plated in 96-well tissue culture plates and cultured for 48. After 48 hours, cell culture media was removed and the cells were washed with phosphate buffered saline solution (PBS). After washing, cells were incubated with 1 μM calcein-AM for 30 minutes. […] After incubation with calcein-AM, the cells were rinsed with fresh control buffer and fluorescence was measured using a Fluo-star fluorescence plate reader (BMG Lab Technologies, N.C.) with excitation and emission filters set at wavelengths of 485 nm and 538 nm, respectively.
Calcein-AM efflux is not mediated by BCRP. Therefore, any increase in calcein-AM uptake by the cells can be attributed to P-gp inhibition. The cells were plated in 96-well tissue culture plates and cultured for 48 hours. After 48 hours, cell culture media was removed and the cells were washed with phosphate buffered saline solution (PBS). After washing, cells were incubated with 1 μM calcein-AM for 30 minutes. […] After incubation with calcein-AM, the cells were rinsed with fresh control buffer and fluorescence was measured using a Fluo-star fluorescence plate reader (BMG Lab Technologies, N.C.) with excitation and emission filters set at wavelengths of 485 nm and 538 nm, respectively. The assay was carried out after each clone had been passaged 9 times.

P-gp mRNA = test: RT-PCR of P-gp mRNA expression in transduced C2BBe1 cells; format: cell-based, human; conditions: RT-PCR, shRNA/P-gp clone cells
Method: (§1) RT-PCR. Total RNA was extracted from cells according to the following protocol. Cells were harvested from culture by centrifugation, resuspended in 1 ml of TRIzol® reagent (Invitrogen, Carlsbad, Calif.), and incubated at room temperature for 5 minutes with gentle shaking. The suspension was transferred to a 1.5 ml centrifuge tube, to which 200 μl of Chloroform was added, followed by an additional 5 minute incubation period with shaking. After incubation, the suspension was centrifuged at 12,000×g for 12 minutes at 4° C. The supernatant was transferred to a fresh, sterile 1.5 ml centrifuge tube, and supplemented with 0.5 ml of 2-propanaol per 1 ml of TRIzol reagent, and incubated for 10 minutes at room temperature. The mixture was then centrifuged at 12,000×g for an additional 12 minutes at 4° C. After centrifugation, the supernatant was removed and the pellet was washed with 75% ethanol. The sample was re-centrifuged at 7500×g for 5 minutes at 4° C., followed by the removal of the supernatant. The pellet was allowed to air dry at room temperature. The pellet was resuspended in pre-warmed (55° C.) nuclease-free water, and incubated at 55° C. for 10 minutes. RNA yield and purity were quantified by absorbance at 260 nm and 280 nm.
(§2) RT-PCR mixtures were set up as 50 μl samples containing buffer, 1-2 μg of RNA, 10 μM of Forward primer, 10 μM of Reverse primer, Taq polymerase, and water. Primers to amplify human P-gylcoprotein were as follows: P-gp Forward 5′-[…]-3′ (SEQ ID NO: 9); and, P-gp Reverse 5′-[…]-3′ (SEQ ID NO: 10). Primers to amplify human MRP2 were as follows: MRP2 Forward 5′-[…]-3′ (SEQ ID NO: 11); and, MRP2 Reverse 5′-[…]-3′ (SEQ ID NO: 12). Primes to amplify human BCRP were as follows: BCRP Forward 5′-[…] 3′ (SEQ ID NO: 13); and, BCRP Reverse 5′-[…] 3′ (SEQ ID NO: 14). Human β-actin was amplified in parallel as a positive control using the following primers: β-actin Forward 5′-[…]-3′ (SEQ ID NO: 15); and, β-actin Reverse 5′-[…]-3′ (SEQ ID NO: 16).
(§3) The PCR cycles proceeded in a programmable thermocycler with the following parameters: cDNA synthesis, 1 cycle, 55° C. for 30 minutes; denaturation, 1 cycle, 94° C. for 2 minutes; PCR amplification, 40 cycles of 94° C. for 15 seconds, 62° C. for 30 seconds, 72° C. for 1 minute; and, final extension, 1 cycle, 72° C. for 5 minutes. Amplification was confirmed by electrophoresis in 2% agarose gels.
Gene expression of P-gp in knockdown cells (shRNA/P-gp clones #83, 84, 85, 86, and 87) was determined by observing P-gp mRNA content, protein content and protein functional activity. RT-PCR was used to determine the expression of the P-gp mRNA. Total cellular RNA was harvested and amplified using primers specific to P-gp mRNA. RT-PCR products were then separated by electrophoresis on a 2% agarose gel. It was determined that 4 of the 5 shRNA/P-gp clone cells contained substantially less P-gp mRNA than control C2BBe1 cells (FIG. 2, top panel). β-actin was amplified, in parallel, as a positive control, and its expression was not affected by the interfering shRNA (FIG. 2, bottom panel).

C2BBE1 cells = conditions: reference values; cited from earlier work
[1] = reference values; cited from earlier work
MRP2 mRNA = test: RT-PCR of MRP2 mRNA expression in transduced C2BBe1 cells; format: cell-based, human; conditions: for Percent decrease in ratio compared to control: MRP2 mRNA vs vector control; for Ratio of MRP2 band intensity to β-actin band intensity: RT-PCR, C2BBe1 cells, passages 2 to 5
Method: as §1, §2, §3
For this example, gene expression of MRP2 in C2BBe1 cells was determined by observing both the MRP2 mRNA content as well as the protein content of the cells following viral transduction. To examine mRNA content, total cellular RNA was harvested and amplified by RT-PCR using primers specific to the MRP2 gene (SEQ ID NO: 11 and 12). The RT-PCR products were then analyzed after separation by electrophoresis on a 2% agarose gel.
Vector control (VC) cells were prepared from cells transducted with lentiviruses encoding a non-interfering nucleic acid sequence (SEQ ID NO 27), as described in Example 7. Methods were described in Example 1. […]

Chain of P-gp (P08183 whole entry): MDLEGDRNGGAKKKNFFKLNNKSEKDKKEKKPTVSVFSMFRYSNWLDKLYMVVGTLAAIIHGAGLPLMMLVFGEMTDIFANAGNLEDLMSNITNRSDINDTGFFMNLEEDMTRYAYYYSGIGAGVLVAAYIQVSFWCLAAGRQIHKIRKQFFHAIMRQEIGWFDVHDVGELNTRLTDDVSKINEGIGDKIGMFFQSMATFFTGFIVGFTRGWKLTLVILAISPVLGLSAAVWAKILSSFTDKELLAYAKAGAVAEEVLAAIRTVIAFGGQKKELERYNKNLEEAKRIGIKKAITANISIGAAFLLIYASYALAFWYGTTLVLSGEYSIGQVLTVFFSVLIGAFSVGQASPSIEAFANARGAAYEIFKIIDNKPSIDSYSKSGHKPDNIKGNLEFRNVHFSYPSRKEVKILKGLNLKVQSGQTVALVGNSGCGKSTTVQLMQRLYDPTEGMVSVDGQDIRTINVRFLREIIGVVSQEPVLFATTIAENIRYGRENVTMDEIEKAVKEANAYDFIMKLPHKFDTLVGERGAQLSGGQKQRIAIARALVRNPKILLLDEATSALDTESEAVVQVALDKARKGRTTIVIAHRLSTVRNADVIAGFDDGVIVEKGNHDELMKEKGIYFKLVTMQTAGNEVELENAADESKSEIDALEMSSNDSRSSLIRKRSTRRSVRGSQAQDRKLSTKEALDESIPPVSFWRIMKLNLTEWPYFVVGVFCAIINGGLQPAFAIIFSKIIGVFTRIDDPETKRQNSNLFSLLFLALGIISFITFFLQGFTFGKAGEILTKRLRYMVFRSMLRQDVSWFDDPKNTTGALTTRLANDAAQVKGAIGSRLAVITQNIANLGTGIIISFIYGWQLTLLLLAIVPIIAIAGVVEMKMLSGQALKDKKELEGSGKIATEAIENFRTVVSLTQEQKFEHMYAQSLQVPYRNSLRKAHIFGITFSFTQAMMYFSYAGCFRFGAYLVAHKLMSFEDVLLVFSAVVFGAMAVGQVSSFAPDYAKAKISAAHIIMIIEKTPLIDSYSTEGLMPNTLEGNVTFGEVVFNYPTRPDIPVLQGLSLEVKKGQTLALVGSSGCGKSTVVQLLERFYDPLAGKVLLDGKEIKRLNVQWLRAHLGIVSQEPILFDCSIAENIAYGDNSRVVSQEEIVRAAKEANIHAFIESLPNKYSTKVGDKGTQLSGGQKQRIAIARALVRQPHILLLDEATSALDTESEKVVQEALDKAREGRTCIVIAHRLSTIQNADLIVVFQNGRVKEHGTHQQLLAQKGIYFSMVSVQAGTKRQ

shRNA/P-gp #86: shRNA to human P-gp, SEQ ID NO: 4, lentivirally transduced into C2BBe1 cells; clone #86 (CCGGGCTCATCGTTTGTCTACAGTTCTCGAGAACTGTAGACAAACGATGAGCTTTTTG; listed as Homo Sapiens)
P-gp function by intracellular calcein fluorescence (P-gp; transduced C2BBe1 cells vs Un-KD): significantly decreased | P-gp mRNA expression relative to control C2BBe1 cells (P-gp mRNA): significantly reduced

C=CCc1ccccc1OCC(O)CNC(C)C (stereo not drawn) [Alprenolol]
Papp in C2BBE1 cells (C2BBE1 cells): 40.5 10^−6 cm/s | % Absorption in human [1]: 93%

CC(=O)Nc1ccc(OCC(O)CNC(C)C)cc1 (stereo not drawn) [Practolol]
Papp in C2BBE1 cells (C2BBE1 cells): 0.9 10^−6 cm/s

CC(=O)CC(c1ccccc1)c1c(O)c2ccccc2oc1=O (stereo not drawn) [Warfarin]
Papp in C2BBE1 cells (C2BBE1 cells): 38.3 10^−6 cm/s

COCCc1ccc(OCC(O)CNC(C)C)cc1 (stereo not drawn) [Metoptolol]
Papp in C2BBE1 cells (C2BBE1 cells): 27 10^−6 cm/s

shRNA/MRP2 #4: interfering RNA to MRP2, SEQ ID NO: 18, lentivirally transduced into C2BBe1 cells; clone #4 (CCGGCCTGGTGGATAGCAACAATATCTCGAGATATTGTTGCTATCCACCAGGTTTTTG; listed as Homo Sapiens)
Percent decrease in ratio compared to control (MRP2 mRNA): 15.31% | Ratio of MRP2 band intensity to β-actin band intensity (MRP2 mRNA): 0.57

CC(=O)Oc1ccccc1C(=O)O [Acetylsalicylic acid]
Papp in C2BBE1 cells (C2BBE1 cells): 2.4 10^−6 cm/s | % Absorption in human [1]: 100%

NC(=O)CC[C@@H]1NC(=O)[C@H](Cc2ccccc2)NC(=O)[C@H](Cc2ccc(O)cc2)NC(=O)[C@@H](N)CSSC[C@@H](C(=O)N2CCC[C@H]2C(=O)N[C@@H](CCCN=C(N)N)C(=O)NCC(N)=O)NC(=O)[C@H](CC(N)=O)NC1=O [Arginine-vasopressin]
Papp in C2BBE1 cells (C2BBE1 cells): 0.14 10^−6 cm/s | % Absorption in human [1]: 0%

OC[C@@H](O)[C@@H](O)[C@H](O)[C@H](O)CO [Mannitol]
Papp in C2BBE1 cells (C2BBE1 cells): 0.18 10^−6 cm/s | % Absorption in human [1]: 16%

C[C@@H]1C[C@H]2[C@@H]3CCC4=CC(=O)C=C[C@]4(C)[C@@]3(F)[C@@H](O)C[C@]2(C)[C@@]1(O)C(=O)CO [Dexamethasone]
% Absorption in human [1]: 100%

shRNA/MRP2 #5: interfering RNA to MRP2, SEQ ID NO: 19, lentivirally transduced into C2BBe1 cells; clone #5 (CCGGGCATCTGAAGTCCCTGAGAAACTCGAGTTTCTCAGGGACTTCAGATGCTTTTTG; listed as Homo Sapiens)
Percent decrease in ratio compared to control (MRP2 mRNA): 6.04% | Ratio of MRP2 band intensity to β-actin band intensity (MRP2 mRNA): 0.63

shRNA/MRP2 #7: interfering RNA to MRP2, SEQ ID NO: 21, lentivirally transduced into C2BBe1 cells; clone #7 (CCGGCCATAGCTTCATTCCTGAGTACTCGAGTACTCAGGAATGAAGCTATGGTTTTTG; listed as Homo Sapiens)
Percent decrease in ratio compared to control (MRP2 mRNA): 19.53% | Ratio of MRP2 band intensity to β-actin band intensity (MRP2 mRNA): 0.54

C[C@]12C[C@H](O)[C@H]3[C@@H](CCC4=CC(=O)CC[C@@]43C)[C@@H]1CC[C@@H]2C(=O)CO [Corticosterone]
% Absorption in human [1]: 100%

C[C@]12CC[C@H]3[C@@H](CCC4=CC(=O)CC[C@@]43C)[C@@H]1CC[C@@H]2O [Testosterone]
% Absorption in human [1]: 100%

CC(C)NCC(O)COc1cccc2ccccc12 (stereo not drawn) [Propranolol]
Papp in C2BBE1 cells (C2BBE1 cells): 41.9 10^−6 cm/s

CC(C)(C)NCC(O)c1cc(O)cc(O)c1 (stereo not drawn) [Terbutaline]
Papp in C2BBE1 cells (C2BBE1 cells): 0.38 10^−6 cm/s | % Absorption in human [1]: 73%

CCOC(=O)C1=C(C)NC(C)=C(C(=O)OC)C1c1cccc(Cl)c1Cl (stereo not drawn) [Felodipine]
Papp in C2BBE1 cells (C2BBE1 cells): 22.7 10^−6 cm/s

shRNA/MRP2 #6: interfering RNA to MRP2, SEQ ID NO: 20, lentivirally transduced into C2BBe1 cells; clone #6 (CCGGGCCGGTGGTCAGATTATCATTCTCGAGAATGATAATCTGACCACCGGCTTTTTG; listed as Homo Sapiens)
Percent decrease in ratio compared to control (MRP2 mRNA): −7.59% | Ratio of MRP2 band intensity to β-actin band intensity (MRP2 mRNA): 0.72

1-Deamino-8-D-arginine
Papp in C2BBE1 cells (C2BBE1 cells): 0.13 10^−6 cm/s

CC(=O)OCOC(=O)CN(CC(=O)OCOC(C)=O)Cc1cc2c(cc1OC(C)=O)Oc1cc(OC(C)=O)c(CN(CC(=O)OCOC(C)=O)CC(=O)OCOC(C)=O)cc1C21OC(=O)c2ccccc21 [calcein-AM]
Normalized Mean Fluorescence (P-gp; Vector Control cells): 23.92 | Normalized Mean Fluorescence in the Presence of CSA (P-gp; Vector Control cells): 62.86 | Normalized Mean Fluorescence in the Presence of CSA (P-gp; shRNA/BCRP clone #801 cells, passage 20): 72.31 | Normalized Mean Fluorescence (P-gp; shRNA/BCRP clone #801 cells, passage 20, normalized for total protein): 5.08 | % decrease of Calcein-AM compared to vector control (P-gp; shRNA/BCRP clone cell #798): 0.33% | RFU/μg of protein (P-gp; shRNA/BCRP clone cell #798, 1 μM calcein-AM, passaged 9 times): 10.13 RFU/μg of protein | % decrease of Calcein-AM compared to vector control (P-gp; shRNA/BCRP clone cell #799): 31.18% | RFU/μg of protein (P-gp; shRNA/BCRP clone cell #799, 1 μM calcein-AM, passaged 9 times): 6.99 RFU/μg of protein | % decrease of Calcein-AM compared to vector control (P-gp; shRNA/BCRP clone cell #800): 58.07% | RFU/μg of protein (P-gp; shRNA/BCRP clone cell #800, 1 μM calcein-AM, passaged 9 times): 4.26 RFU/μg of protein | % decrease of Calcein-AM compared to vector control (P-gp; shRNA/BCRP clone cell #801): 89.37% | RFU/μg of protein (P-gp; shRNA/BCRP clone cell #801, 1 μM calcein-AM, passaged 9 times): 1.08 RFU/μg of protein | % decrease of Calcein-AM compared to vector control (P-gp; shRNA/BCRP clone cell #802): 33.42% | RFU/μg of protein (P-gp; shRNA/BCRP clone cell #802, 1 μM calcein-AM, passaged 9 times): 6.76 RFU/μg of protein | RFU/μg of protein (P-gp; vector control cells, 1 μM calcein-AM): 10.16 RFU/μg of protein

shRNA/MRP2 #3: interfering RNA to MRP2, SEQ ID NO: 17, lentivirally transduced into C2BBe1 cells; clone #3 (CCGGCGTGTATAAATCCAGGACCAACTCGAGTTGGTCCTGGATTTATACACGTTTTTG; listed as Homo Sapiens)
Percent decrease in ratio compared to control (MRP2 mRNA): 15.12% | Ratio of MRP2 band intensity to β-actin band intensity (MRP2 mRNA): 0.57

O=C(O)c1cc(/N=N/c2ccc(O)c(C(=O)O)c2)ccc1O [Olsalazine]
Papp in C2BBE1 cells (C2BBE1 cells): 0.11 10^−6 cm/s | % Absorption in human [1]: 2%
